Data: patent US7868204B2, “Inhibitors of histone deacetylase” (MethylGene Inc., priority 2001, dated 2011)

Key:
[1] = molecular target: T1, cloned recombinant human HDAC-1 (Homo sapiens, UniProt Q13547); test: Human HDAC-1 enzyme inhibition, Assay 1 ([3H]-acetylated histone substrate, scintillation counting); type: biochemical; settings: Table 5F; read-out: Human HDAC-1 IC50
T1 construct: made in house; host or cells: Baculovirus insect cell expression system
Procedure, shortened: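 Activity read as [3H]-acetic acid liberated from labeled substrate, ethyl acetate-extracted and scintillation-counted. Compounds preincubated 30 min at 4° C. with baculovirus-expressed, purified human HDAC-1. Dose-response curves give IC50 as concentration producing fifty percent of maximal inhibition.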

[2] = tested on: HCT116 cells; test: MTT assay; type: cell-based; settings: Homo sapiens, HCT-116, 72 h, Table 5F; HCT116 cells, 72 hours
Procedure, shortened: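 Read-out: MTT (0.5 mg/ml final, 4 h) after solubilization in 50% DMF/20% SDS, pH 4.7, with OD translated into cell number via the line's growth curve. Compound treatment lasted 72 h at 37 °C in 5% CO2, starting a day after plating.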

[3] = tested on: acetylated histone H-4 in T24 human bladder cancer cells; test: Histone H4 acetylation in whole cells by immunoblots; type: cell-based; settings: T-24, Table 5F, 16 h, read-out: H4 Ac (T24) EC50
Procedure, shortened: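 Acetylated histone H4 was quantified by densitometry of ECL-developed immunoblots, probed with a polyclonal antibody, of […] total histone from T24 cultures exposed 16 h to HDAC inhibitors.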

T1 sequence (Q13547 whole entry): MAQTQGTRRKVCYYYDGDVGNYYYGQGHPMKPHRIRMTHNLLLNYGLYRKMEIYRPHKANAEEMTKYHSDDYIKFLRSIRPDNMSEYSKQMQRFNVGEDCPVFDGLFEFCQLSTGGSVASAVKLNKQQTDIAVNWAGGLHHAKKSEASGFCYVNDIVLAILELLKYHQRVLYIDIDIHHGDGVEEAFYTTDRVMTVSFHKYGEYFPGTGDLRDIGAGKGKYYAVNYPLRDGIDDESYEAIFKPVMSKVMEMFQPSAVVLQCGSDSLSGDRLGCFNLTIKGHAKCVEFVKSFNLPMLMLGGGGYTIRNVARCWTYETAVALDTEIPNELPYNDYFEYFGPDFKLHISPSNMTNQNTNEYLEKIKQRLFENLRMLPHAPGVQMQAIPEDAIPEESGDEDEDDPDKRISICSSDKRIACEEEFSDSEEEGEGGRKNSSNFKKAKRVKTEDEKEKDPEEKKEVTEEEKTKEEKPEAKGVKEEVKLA

| IC50 [1] [nM] | IC50 [2] [nM] | EC50 [3] [nM] | SMILES |
| --- | --- | --- | --- |
| 400 | 800 | 1000 | COc1ccc(Cn2c(=O)n(Cc3ccc(C(=O)Nc4ccccc4N)cc3)c(=O)c3ccccc32)cc1 [Cpd 345, N-(2-Amino-phenyl)-4-[1-(4-methoxy-benzyl)-2,4-dioxo-1,4-dihydro-2H-quinazolin-3-ylmethyl]-benzamide] |
| 3000 | 500 | < 1000 | Nc1ccccc1NC(=O)c1ccc(Cn2cnc3ccc(Br)cc3c2=O)cc1 [Cpd 346, N-(2-Amino-phenyl)-4-(6-bromo-4-oxo-4H-quinazolin-3-ylmethyl)-benzamide] |
| 2000 | 600 | 2000 | Nc1ccccc1NC(=O)c1ccc(Cn2nnc3ccc(Br)cc3c2=O)cc1 [Cpd 347, N-(2-Amino-phenyl)-4-(6-bromo-4-oxo-4H-benzo[d][1,2,3]triazin-3-ylmethyl)-benzamide] |
| 2000 | 300 | 1000 | Nc1ccccc1NC(=O)c1ccc(Cn2nnc3ccc(Cl)cc3c2=O)cc1 [Cpd 348, N-(2-Amino-phenyl)-4-(6-chloro-4-oxo-4H-benzo[d][1,2,3]triazin-3-ylmethyl)-benzamide] |
| 13000 | 1000 | 3000 | Nc1ccccc1NC(=O)c1ccc(CNc2cccc(F)n2)cc1 [Cpd 349] |
| 2000 | 1000 | 5000 | Nc1ccccc1NC(=O)c1ccc(CNc2nc(F)c(F)cc2F)cc1 [Cpd 350] |
| 4000 | 400 | 2000 | Nc1ccccc1NC(=O)c1ccc(Cc2noc(-c3cccnc3)n2)cc1 [Cpd 357, N-(2-Amino-phenyl)-4-(5-pyridin-3-yl-[1,2,4]oxadiazol-3-ylmethyl)-benzamide] |
| 3000 | 1000 | 2000 | Nc1ccccc1NC(=O)c1ccc(Cc2noc(-c3ccncc3)n2)cc1 [Cpd 358, N-(2-Amino-phenyl)-4-(5-pyridin-4-yl-[1,2,4]oxadiazol-3-ylmethyl)-benzamide] |
| 2000 | 300 | 1000 | CC(=O)Nc1sc(Cc2ccc(C(=O)Nc3ccccc3N)cc2)cc1C#N [Cpd 359, 4-(5-Acetylamino-4-cyano-thiophen-2-ylmethyl)-N-(2-amino-phenyl)-benzamide] |
| 5000 | 200 | 1000 | Cc1c(Cc2ccc(C(=O)Nc3ccccc3N)cc2)sc(NC(=O)c2ccccc2)c1C#N [Cpd 360, 4-(5-Benzoylamino-4-cyano-3-methyl-thiophen-2-ylmethyl)-N-(2-amino-phenyl)-benzamide] |
| 2000 | 500 | 1000 | Cc1c(Cc2ccc(C(=O)Nc3ccccc3N)cc2)sc(NC(=O)Nc2ccccc2)c1C#N [Cpd 361, N-(2-Amino-phenyl)-4-[4-cyano-3-methyl-5-(3-phenyl-ureido)-thiophen-2-ylmethyl]-benzamide] |
| 2000 | 700 | 1000 | Nc1ccccc1NC(=O)c1ccc(CN2C(=O)COc3ccccc32)cc1 [Cpd 362, N-(2-Amino-phenyl)-4-(3-oxo-2,3-dihydro-benzo[1,4]oxazin-4-ylmethyl)-benzamide] |
| 1000 | 300 | 3000 | Nc1ccccc1NC(=O)c1ccc(CN2C(=O)CSc3ccccc32)cc1 [Cpd 363, N-(2-Amino-phenyl)-4-(3-oxo-2,3-dihydro-benzo[1,4]thiazin-4-ylmethyl)-benzamide] |
| 3000 | 600 | 3000 | Nc1ccccc1NC(=O)c1ccc(CC2C(=O)c3ccccc3C2O)cc1 (stereo not drawn) [Cpd 365, N-(2-Amino-phenyl)-4-(1-hydroxy-3-oxo-indan-2-ylmethyl)-benzamide] |
| 6000 | 2000 | 5000 | COc1ccc(C2C=CC(c3ccc(C(=O)Nc4ccccc4N)cc3)O2)cc1 (stereo not drawn) [Cpd 367, N-(2-Amino-phenyl)-4-[5-(4-methoxy-phenyl)-2,5-dihydro-furan-2-yl]-benzamide] |
| 4000 | 500 | 2000 | COc1ccc(NC(=O)N(Cc2ccc(C(=O)Nc3ccccc3N)cc2)c2ccc(OC)c(OC)c2)cc1OC [Cpd 371, N-(2-Amino-phenyl)-4-[1,3-bis-(3,4-dimethoxy-phenyl)-ureidomethyl]-benzamide] |
| 2000 | 200 | 1000 | COc1ccc(N(Cc2ccc(C(=O)Nc3ccccc3N)cc2)C(=O)Nc2ccc(Cl)cc2)cc1OC [Cpd 372, N-(2-Amino-phenyl)-4-[3-(4-chloro-phenyl)-1-(3,4-dimethoxy-phenyl)-ureidomethyl]-benzamide] |
| 4000 | 400 | 1000 | COc1ccc(N(Cc2ccc(C(=O)Nc3ccccc3N)cc2)C(=O)Nc2ccccc2)cc1OC [Cpd 373, N-(2-Amino-phenyl)-4-[1-(3,4-dimethoxy-phenyl)-3-phenyl-ureidomethyl]-benzamide] |
| 2500 | 300 | 1000 | COc1ccc(N(Cc2ccc(C(=O)Nc3ccccc3N)cc2)C(=O)Nc2ccc(Oc3ccccc3)cc2)cc1OC [Cpd 374, N-(2-Amino-phenyl)-4-[1-(3,4-dimethoxy-phenyl)-3-(4-phenoxy-phenyl)-ureidomethyl]-benzamide] |

| IC50 [1] [nM] | IC50 [2] [nM] | EC50 [3] [nM] | SMILES |
| --- | --- | --- | --- |
| 3000 | 4000 | 25000 | Nc1ccccc1NC(=O)c1ccc(-c2ccc(C(=O)Nc3ccccc3N)cc2)cc1 [Cpd 375, Biphenyl-4,4′-dicarboxylic acid bis-[(2-amino-phenyl)-amide]] |
| 4000 | 2000 | 3000 | Nc1ccccc1NC(=O)c1ccc(CNc2ncccn2)cc1 [Cpd 377] |
| 2000 | 700 | 2000 | Cc1cc(C)nc(SCc2ccc(C(=O)Nc3ccccc3N)cc2)n1 [Cpd 378, N-(2-Amino-phenyl)-4-(4,6-dimethyl-pyrimidin-2-ylsulfanylmethyl)-benzamide] |
| 2000 | 600 | 15000 | Nc1ccccc1NC(=O)c1ccc(CSc2nccc(C(F)(F)F)n2)cc1 [Cpd 379, N-(2-Amino-phenyl)-4-(4-trifluoromethyl-pyrimidin-2-ylsulfanylmethyl)-benzamide] |
| 2000 | 1000 | 2000 | Nc1ccccc1NC(=O)c1ccc(CSc2ccccn2)cc1 [Cpd 381] |
| 3000 | 1000 | 3000 | Cc1cc(C)nc(NCc2ccc(C(=O)Nc3ccccc3N)cc2)n1 [Cpd 382, N-(2-Amino-phenyl)-4-[(4,6-dimethyl-pyrimidin-2-ylamino)-methyl]-benzamide] |
| 2000 | 500 | 2000 | Cc1cc(C)nc(NCc2ccc(C(=O)Nc3ccccc3N)cc2)c1 [Cpd 383, N-(2-Amino-phenyl)-4-[(4,6-dimethyl-pyridin-2-ylamino)-methyl]-benzamide] |
| 3000 | 2000 | 5000 | Cc1cc(C)nc(OCc2ccc(C(=O)Nc3ccccc3N)cc2)n1 [Cpd 384, N-(2-Amino-phenyl)-4-(4,6-dimethyl-pyrimidin-2-yloxymethyl)-benzamide] |
| 3000 | 1000 | 2000 | COc1cc(NCc2ccc(C(=O)Nc3ccccc3N)cc2)ncn1 [Cpd 385] |
| 3000 | 1000 | 1000 | CC(=O)c1cc2c(cc1NCc1ccc(C(=O)Nc3ccccc3N)cc1)OCO2 [Cpd 386, 4-[(6-Acetyl-benzo[1,3]dioxol-5-ylamino)-methyl]-N-(2-amino-phenyl)-benzamide] |
| 2000 | 1000 | 1000 | COc1cc(Cl)cc(NCc2ccc(C(=O)Nc3ccccc3N)cc2)n1 [Cpd 387] |
| 3000 | 400 | 5000 | COc1ccc(NCc2ccc(C(=O)Nc3ccccc3N)cc2)c(OC)n1 [Cpd 388, N-(2-Amino-phenyl)-4-[(2,6-dimethoxy-pyridin-3-ylamino)-methyl]-benzamide] |
| 3000 | 200 | 1000 | Nc1ccccc1NC(=O)c1ccc(CNc2nc3ccccc3[nH]2)cc1 [Cpd 389] |
| 2000 | 800 | 5000 | COc1cccc(NCc2ccc(C(=O)Nc3ccccc3N)cc2)n1 [Cpd 390, N-(2-Amino-phenyl)-4-[(6-methoxy-pyridin-2-ylamino)-methyl]-benzamide] |
| 1000 | 900 | 3000 | Nc1ccccc1NC(=O)c1ccc(CSc2cccc3cccnc23)cc1 [Cpd 391, N-(2-Amino-phenyl)-4-(quinolin-8-ylsulfanylmethyl)-benzamide] |
| 4000 | 1000 | 1000 | COc1cc(NCc2ccc(C(=O)Nc3ccccc3N)cc2)nc(OC)n1 [Cpd 392, N-(2-Amino-phenyl)-4-[(2,6-dimethoxy-pyrimidin-4-ylamino)-methyl]-benzamide] |
| 4000 | 600 | 1000 | COc1cc(CNc2ccc(C(=O)Nc3ccccc3N)cc2)cc(OC)c1 [Cpd 393, N-(2-Amino-phenyl)-4-(3,5-dimethoxy-benzylamino)-benzamide] |
| 4000 | 2000 | 25000 | COc1cccc(SCc2ccc(C(=O)Nc3ccccc3N)cc2)c1 [Cpd 394] |
